From US12569508B2, “Antimicrobial compositions and methods of use” (priority 2020, dated 2026)

Tested on: PAO1 biofilm
Test: In vitro MBEC antibiofilm assay
Type: cell-based, P. aeruginosa
Details: 5-15 μg/mL colistin
Protocol: The pegs on lid of the MBEC Assay® were submerged into the bacterial suspension, with column 12 containing sterile LB broth as a negative control. The plate was incubated at 37° C. on a rotating gyrator for 24 h to form biofilm on the pegs. After 24 h, the peg lid was removed and transferred into another 96-well microtiter plate containing sterile water for 30 seconds before being transferred into a treatment plate. The peg lid in the treatment plate was incubated for 24 h at 37° C. on the rotating gyrator. In the first study, the effect of concentration variation of TOB in MO-LCNPs was determined. […] The respective controls included unloaded formulations MO-LCNP and […] at equivalent concentrations and 0.9% NaCl. […] In the second study, the difference in effect of MO- and […] compared to liposomes containing TOB was determined. […] The final concentration of MO and PHY was 0.25 mg/mL. Liposomes were prepared as described above. In the third study, TOB, AMI and GEN as unformulated solutions and loaded in MO-LCNPs were compared as treatments against PAO1 biofilms in the MBEC Assay®. The concentration of each antibiotic was 6 μg/mL. […] In all four different studies, the treatments were incubated with the PAO1 biofilm grown on the MBEC Assay® on a rotating plate at 37° C. After 24 h incubation, the peg lid was transferred to a fresh plate containing sterilized water to inhibit treatments. […]

For Colistin sulfate salt, the “anti-biofilm effect compared to saline control” value was “no anti-biofilm or antimicrobial effect”.
